Data: patent US20230107941A1, “HEPATITIS B CAPSID ASSEMBLY MODULATORS” (Venatorx Pharmaceuticals, Inc., priority 2019, published 2023)

Assays:
[1] = In vitro cytotoxicity assay (MTT cell viability) in HepG2 cells; assay type: cell-based, human; details: human
Outline: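 CC50 was derived by 4-parameter fit of viability relative to vehicle controls, measured as MTT formazan absorbance at 492 nm after 3–4 h of reagent and DMSO solubilization. Before that, HepG2 cells seeded overnight at 20,000/well were incubated 7 days at 37°C with compound from 30 μM down to 1.0 nM in half-log steps.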

HBV = assay: In vitro antiviral assay: anti-HBV replication in HepAD38 cells (extracellular HBV DNA by QPCR); assay type: cell-based, hepatitis B virus (genotype D, serotype ayw); details: Hepatitis B virus, HePAD38, 168 h, 7 days incubation, extracellular HBV DNA by QPCR, read-out: Anti-HBV EC50
Outline: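 HepG2-derived HepAD38 cells (HBV genotype D, ayw, tet-repressible CMV) induced by tetracycline withdrawal, treated 7 days at 37 °C with compound (1 μM to 10 pM, 10-fold steps). Supernatant HBV DNA quantified by QPCR against standard curve, percent of DMSO control; EC50 by 4-parameter fit; entecavir positive control.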

| SMILES | CC50 at 7 days [1] [nM] | EC50 (HBV) [nM] |
| --- | --- | --- |
| Cc1cc(NC(=O)c2c(C)c(C(=O)C(=O)NCC(C)(C)O)n(C)c2-c2ccccn2)ccc1F [Example 159, N-(4-fluoro-3-methylphenyl)-5-(2-((2-hydroxy-2-methylpropyl)amino)-2-oxoacetyl)-1,4-dimethyl-2-(pyridin-2-yl)-1H-pyrrole-3-carboxamide] | > 30000 | > 1000 |
| Cc1cc(NC(=O)c2c(C)c(C(=O)C(=O)N[C@H]3CC[C@@H](S(C)(=O)=O)CC3)n(C)c2-c2ccncc2)ccc1F [Example 160, N-(4-fluoro-3-methylphenyl)-1,4-dimethyl-5-(2-(((1s,4s)-4-(methylsulfonyl)cyclohexyl)amino)-2-oxoacetyl)-2-(pyridin-4-yl)-1H-pyrrole-3-carboxamide] | > 30000 | > 1000 |
| Cc1cc(NC(=O)c2c(C)c(C(=O)C(=O)N[C@]3(C)C[C@H](O)C3)n(C)c2-c2ccncc2)ccc1F [Example 161, N-(4-fluoro-3-methylphenyl)-5-(2-(((1s,3s)-3-hydroxy-1-methylcyclobutyl)amino)-2-oxoacetyl)-1,4-dimethyl-2-(pyridin-4-yl)-1H-pyrrole-3-carboxamide] | > 30000 | > 1000 |
| Cc1cc(NC(=O)c2c(C)c(C(=O)C(=O)N[C@]3(C)CC[C@H](O)CC3)n(C)c2-c2ccncc2)ccc1F [Example 162, N-(4-fluoro-3-methylphenyl)-5-(2-(((1s,4s)-4-hydroxy-1-methylcyclohexyl)amino)-2-oxoacetyl)-1,4-dimethyl-2-(pyridin-4-yl)-1H-pyrrole-3-carboxamide] | > 30000 | > 1000 |
| Cc1cc(NC(=O)c2c(C)c(C(=O)C(=O)N[C@H]3CC[C@@H](O)CC3)n(C)c2-c2ccncc2)ccc1F [Example 163, N-(4-fluoro-3-methylphenyl)-5-(2-(((1s,4s)-4-hydroxycyclohexyl)amino)-2-oxoacetyl)-1,4-dimethyl-2-(pyridin-4-yl)-1H-pyrrole-3-carboxamide] | > 30000 | > 1000 |
| Cc1cc(NC(=O)c2c(C)c(C(=O)C(=O)NCC(C)(C)O)n(C)c2-c2ccncc2)ccc1F [Example 164, N-(4-fluoro-3-methylphenyl)-5-(2-((2-hydroxy-2-methylpropyl)amino)-2-oxoacetyl)-1,4-dimethyl-2-(pyridin-4-yl)-1H-pyrrole-3-carboxamide] | > 30000 | > 1000 |
| CC(=O)N1CC[C@@H](NC(=O)C(=O)c2c(C)c(C(=O)Nc3ccc(F)c(C)c3)c(C)n2C)C[C@H]1C [Example 165, 5-(2-(((2R,4R)-1-acetyl-2-methylpiperidin-4-yl)amino)-2-oxoacetyl)-N-(4-fluoro-3-methylphenyl)-1,2,4-trimethyl-1H-pyrrole-3-carboxamide] | > 30000 | < 50 |
| CC(=O)N1CC[C@H](NC(=O)C(=O)c2c(C)c(C(=O)Nc3ccc(F)c(C)c3)c(C)n2C)C[C@@H]1C [Example 166, 5-(2-(((2S,4S)-1-acetyl-2-methylpiperidin-4-yl)amino)-2-oxoacetyl)-N-(4-fluoro-3-methylphenyl)-1,2,4-trimethyl-1H-pyrrole-3-carboxamide] | > 30000 | 50 to 499 |
| CC(=O)N1CC[C@@H](NC(=O)C(=O)c2c(C)c(C(=O)Nc3ccc(F)c(C)c3)c(C)n2C)[C@H](O)C1 [Example 167, 5-(2-(((3R,4R)-1-acetyl-3-hydroxypiperidin-4-yl)amino)-2-oxoacetyl)-N-(4-fluoro-3-methylphenyl)-1,2,4-trimethyl-1H-pyrrole-3-carboxamide] | > 30000 | 500 to 1000 |
| Cc1cc(NC(=O)c2c(C)c(C(=O)C(=O)N[C@]3(C)CC[C@@H](O)CC3)n(C)c2C)cc(C)c1F [Example 168, N-(4-fluoro-3,5-dimethylphenyl)-5-(2-(((1r,4r)-4-hydroxy-1-methylcyclohexyl)amino)-2-oxoacetyl)-1,2,4-trimethyl-1H-pyrrole-3-carboxamide] | > 30000 | < 50 |
